How the values were obtained:
[1] = test system: post-operative adult patients; test: Example 1: patient self-assessment of pain, VAS with movement; type: in vivo, human; parameters: key to VAS Score measured with Movement (median): VAS 0-10: 0 = no pain, 10 = intense pain; conditions: 800 mg
Procedure: Pain was measured by the patient's self-assessment using a Visual Analog Scale (VAS) from 0-10 with 0 being no pain and 10 being intense pain. This was measured both at rest and with movement. […] […] To account for the missing pain assessments, two missing value approaches as described in the statistical analysis plan were used to impute values. To determine the difference in overall pain at differing time-points, the area under the VAS pain curve during the first 24 hours, between 6 and 24 hours and between 12 and 24 hours were analyzed.

[2] = test system: patients undergoing orthopedic surgical procedures; test: Example 3: pain at rest measured with VAS; conditions: 800 mg, immediately post-surgery
[3] = test system: patients with fever and severe sepsis; conditions: cited from earlier work
[4] = test system: post-operative adult patients; test: Example 2: time to GI motility, ambulation, liquid intake, solid diet, length of hospital stay; type: in vivo, human; conditions: 800 mg; for Time to GI motility: value + SD
Procedure: To evaluate the secondary objective of determining whether the addition of IVIb reduces the incidence of opioid related side-effects, the following endpoints were measured: (a) GI motility as assessed by return of bowel sounds, flatulence, or bowel movement (b) Combined Safety Assessment (occurrence of any of the following during the 48 hour treatment period received a rating of one: diffuse pruritus, overt respiratory depression requiring treatment; the combined total and individual incidences were evaluated), need for post-operative urinary indwelling catheter (after initial removal of surgical catheter), incidence of post-operative vomiting or need for anti-emetic medication, Richmond Agitation Sedation Scale (<−3), (c) Resumption of ambulation, (d) Resumption of liquid intake and solid diet, and (e) Length of hospital stay.

[5] = cited from earlier work

In the case of `CC(C)Cc1ccc(C(C)C(=O)O)cc1` (stereo not shown) [Ibuprofen, 2-(4-isobutylphenyl) propionic acid], the “VAS Score measured with Movement, % Reduction vs Placebo” value (“VAS Score … % Reduction vs Placebo” for short) ([1]; EEP, 3-Hour) is reported as −1.7%, the “VAS Score measured with Movement (median)” value (from here on “VAS Score … (median)”) ([1]; EEP, 6-Hour) is reported as 5.6 and the “VAS Score … % Reduction vs Placebo” value ([1]; EEP, 6-Hour) is reported as −12.0%. The “VAS Score … (median)” value ([1]; EEP, 9-Hour) was 4.8, the “VAS Score … % Reduction vs Placebo” value ([1]; EEP, 9-Hour) was 4.0% and the “VAS Score … (median)” value ([1]; EEP, 12-Hour) was 4.4. For the same compound, the “VAS Score … (median)” value ([1]; EEP, 15-Hour) was 4.2, the “VAS Score … % Reduction vs Placebo” value ([1]; EEP, 15-Hour) was 16.0% and the “VAS Score … (median)” value ([1]; EEP, 18-Hour) was 4.0. The “VAS Score … % Reduction vs Placebo” value ([1]; EEP, 18-Hour) was 20.0%, the “VAS Score … (median)” value ([1]; EEP, 21-Hour) was 3.7 and the “VAS Score … % Reduction vs Placebo” value ([1]; EEP, 21-Hour) was 26.0%. The “VAS Score … (median)” value ([1]; EEP, 24-Hour) was 3.6, the “VAS Score … % Reduction vs Placebo” value ([1]; EEP, 24-Hour) was 18.2% and the “VAS Score … (median)” value ([1]; EEP, 27-Hour) was 3.7. The “VAS Score … % Reduction vs Placebo” value ([1]; EEP, 27-Hour) was 17.8%, the “VAS Score … (median)” value ([1]; EEP, 30-Hour) was 3.6 and the “VAS Score … (median)” value ([1]; EEP, 33-Hour) was 3.6. For the same compound, the “VAS Score … % Reduction vs Placebo” value ([1]; EEP, 33-Hour) was 5.3%, the “VAS Score … (median)” value ([1]; EEP, 36-Hour) was 3.4 and the “VAS Score … (median)” value ([1]; EEP, 39-Hour) was 3.8. For the same compound, the “VAS Score … % Reduction vs Placebo” value ([1]; EEP, 39-Hour) was −11.8%, the “VAS Score … (median)” value ([1]; EEP, 42-Hour) was 3.2 and the “VAS Score … % Reduction vs Placebo” value ([1]; EEP, 42-Hour) was 8.6%. The “VAS Score … (median)” value ([1]; EEP, 45 Hour) was 2.8, the “VAS Score … % Reduction vs Placebo” value ([1]; EEP, 45 Hour) was 9.7% and the “VAS Score … (median)” value ([1]; EEP, 48-Hour) was 2.1. The “VAS Score … (median)” value ([1]; ITT, 1-Hour) was 7.3, the “VAS Score … % Reduction vs Placebo” value ([1]; ITT, 1-Hour) was 8.8% and the “VAS Score … (median)” value ([1]; ITT, 2-Hour) was 6.8. For the same compound, the “VAS Score … % Reduction vs Placebo” value ([1]; ITT, 2-Hour) was 6.8%, the “VAS Score … (median)” value ([1]; ITT, 3-Hour) was 6.0 and the “VAS Score … % Reduction vs Placebo” value ([1]; ITT, 3-Hour) was 4.8%. The “VAS Score … (median)” value ([1]; ITT, 6-Hour) was 5.3, the “VAS Score … % Reduction vs Placebo” value ([1]; ITT, 6-Hour) was 7.0% and the “VAS Score … (median)” value ([1]; ITT, 9-Hour) was 4.6. The “VAS Score … (median)” value ([1]; ITT, 12-Hour) was 4.3, the “VAS Score … % Reduction vs Placebo” value ([1]; ITT, 12-Hour) was 14.0% and the “VAS Score … (median)” value ([1]; ITT, 15-Hour) was 4.2. For the same compound, the “VAS Score … % Reduction vs Placebo” value ([1]; ITT, 15-Hour) was 16.0%, the “VAS Score … (median)” value ([1]; ITT, 18-Hour) was 4.0 and the “VAS Score … % Reduction vs Placebo” value ([1]; ITT, 18-Hour) was 20.0%. The “VAS Score … (median)” value ([1]; ITT, 21-Hour) was 3.8, the “VAS Score … % Reduction vs Placebo” value ([1]; ITT, 21-Hour) was 22.4% and the “VAS Score … (median)” value ([1]; ITT, 24-Hour) was 3.7. For the same compound, the “VAS Score … % Reduction vs Placebo” value ([1]; ITT, 24-Hour) was 17.8%, the “VAS Score … (median)” value ([1]; ITT, 27 Hour) was 3.6 and the “VAS Score … % Reduction vs Placebo” value ([1]; ITT, 27 Hour) was 18.2%. The “VAS Score … (median)” value ([1]; ITT, 30-Hour) was 3.5, the “VAS Score … (median)” value ([1]; ITT, 33-Hour) was 3.5 and the “VAS Score … % Reduction vs Placebo” value ([1]; ITT, 33-Hour) was 7.9%. The “VAS Score … (median)” value ([1]; ITT, 36-Hour) was 3.5, the “VAS Score … (median)” value ([1]; ITT, 39-Hour) was 3.7 and the “VAS Score … % Reduction vs Placebo” value ([1]; ITT, 39-Hour) was -5.7%. The “VAS Score … (median)” value ([1]; ITT, 42-Hour) was 3.3, the “VAS Score … % Reduction vs Placebo” value ([1]; ITT, 42-Hour) was 2.9% and the “VAS Score … (median)” value ([1]; ITT, 45-Hour) was 2.7. The “VAS Score … (median)” value ([1]; ITT, 48-Hour) was 2.1, the “VAS Score … % Reduction vs Placebo” value ([1]; ITT, 48-Hour) was 8.7% and the “decrease in the mean VAS at rest” value ([2]; AT) was 15.8%. The “decrease in the mean VAS at rest” value ([2]; efficacy evaluable) was 14.7%, the “decrease in the mean VAS at rest” value ([2]; intent-to-treat) was 16.5% and the “safety (renal function, gastrointestinal bleeding, transfusion requirements, other SAEs)” value ([3]; in vivo, iv) was “safe”. The “effect on fever, pulse rate and lactic acidosis” value ([3]; patients with sepsis, intravenous) was “reduced fever and pulse rate and lessened lactic acidosis”, the “Length of hospital stay” value ([4]; EEP) was 62.8 ± 21.58 and the Time to ambulation ([4]; EEP) was 23.5 ± 0.53 h. The “Time to liquid intake” value ([4]; EEP) was 12.4 ± 0.89, the “Time to solid diet” value ([4]; EEP) was 39.1 ± 1.42 h and the “Time to GI motility” value ([4]; EEP) was 9.2+0.90 hours. The “Length of hospital stay” value ([4]; ITT) was 62.4 ± 21.01, the Time to ambulation ([4]; ITT) was 23.4 ± 0.50 h and the “Time to liquid intake” value ([4]; ITT) was 12.1 ± 0.83. The “Time to solid diet” value ([4]; ITT) was 41.0 ± 2.46 h, the Time to ambulation ([4]; ITT, listed as IV Ibuprofen) was “significantly improved time to ambulation” and the “Time to GI motility” value ([4]; ITT) was 9.4+0.87 hours. The solubility in water [5] was “very poorly soluble in water”.
